Laboratory results as given in ChEMBL document CHEMBL4296182, “CO-ADD screening of NIH NCI Diversity Set V”.
Converted amounts (≈) assume the structure as drawn.

Legend:
[1] = test system: Cryptococcus neoformans
Description: Antifungal activity against Cryptococcus neoformans H99 ATCC 208821 (CO-ADD:FG_002); MIC in YNB media using NBS plates, by Resazurin OD(600-570)

[2] = test system: Candida albicans; assay: microbe, parasite or virus in culture; conditions: ATCC 90028, ASSAY_TEST Inhibition of Fungal Growth, detection method Absorption (OD530), plate type 384well, NBS, CORNING #3640
Description: Antifungal activity against Candida albicans ATCC 90028 (CO-ADD:FG_001); MIC in YNB media using NBS plates, by OD630

[3] = test system: Escherichia coli; assay: microbe, parasite or virus in culture; conditions: ATCC 25922, 18 h, ASSAY_TEST Inhibition of Bacterial Growth, detection method Absorption (OD600), MEDIA CAMHB, plate type 384well, NBS, CORNING #3640
Description: Antibacterial activity against Escherichia coli ATCC 25922 (CO-ADD:GN_001); MIC in CAMBH media using NBS plates, by OD(600)

[4] = test system: Pseudomonas aeruginosa; assay: microbe, parasite or virus in culture; conditions: ATCC 27853, 18 h, ASSAY_TEST Inhibition of Bacterial Growth, detection method Absorption (OD600), MEDIA CAMHB, plate type 384well, NBS, CORNING #3640
Description: Antibacterial activity against Pseudomonas aeruginosa ATCC 27853 (CO-ADD:GN_042); MIC in CAMBH media using NBS plates, by OD(600)

[5] = test system: Staphylococcus aureus; assay: microbe, parasite or virus in culture; conditions: ATCC 43300, 18 h, ASSAY_TEST Inhibition of Bacterial Growth, detection method Absorption (OD600), MEDIA CAMHB, plate type 384well, NBS, CORNING #3640
Description: Antibacterial activity against Staphylococcus aureus MRSA ATCC 43300 (CO-ADD:GP_020); MIC in CAMBH media, using NBS plates, by OD(600)

[6] = test system: Acinetobacter baumannii; assay: microbe, parasite or virus in culture; conditions: ATCC 19606, 18 h, ASSAY_TEST Inhibition of Bacterial Growth, detection method Absorption (OD600), MEDIA CAMHB, plate type 384well, NBS, CORNING #3640
Description: Antibacterial activity against Acinetobacter baumannii ATCC 19606 (CO-ADD:GN_034); MIC in CAMBH media using NBS plates, by OD600

[7] = test system: HEK293; assay: cells; format: functional; conditions: Homo sapiens, ATCC CRL1573, HEK293; ASSAY_TEST Inhibition of Cell Viability; detection method Resazurin; Fluorescence (ex560/em590); MEDIA DMEM with 10% FBS; plate type 384well; TC; CORNING #3712; time 18 hr
[8] = test system: Klebsiella pneumoniae; assay: microbe, parasite or virus in culture; conditions: ATCC 700603, 18 h, ASSAY_TEST Inhibition of Bacterial Growth, detection method Absorption (OD600), MEDIA CAMHB, plate type 384well, NBS, CORNING #3640
Description: Antibacterial activity against Klebsiella pneumoniae MDR ATCC 70063 (CO-ADD:GN_003); MIC in CAMBH media using NBS plates, by OD(600)

| MIC [1] | MIC [2] | MIC [3] | MIC [4] | MIC [5] | MIC [6] | MIC [8] | SMILES | CC50 [7] |
| --- | --- | --- | --- | --- | --- | --- | --- | --- |
| > 10 µM | > 10 µM | > 10 µM | > 10 µM | > 10 µM | > 10 µM | > 10 µM | O=C(Nc1ccc(Nc2ccncc2)cc1)c1ccc(Nc2ccnc3ccc([N+](=O)[O-])cc23)cc1[N+](=O)[O-] | > 10 µM |
| 2.5 µM (≈ 1.19 µg/mL) | > 10 µM | > 10 µM | > 10 µM | > 10 µM | > 10 µM | > 10 µM | O=C(Nc1ccc(Nc2ccncc2)cc1)c1ccc(Nc2ccnc3ccc([N+](=O)[O-])cc23)cc1 | > 10 µM |
| > 10 µM | > 10 µM | 5 µM (≈ 1.59 µg/mL) | > 10 µM | 0.156 µM (≈ 0.0498 µg/mL) | > 10 µM | > 10 µM | Nc1nc(N)c2cc(Sc3ccc4ccccc4c3)ccc2n1 | 4.64 µM |
| > 10 µM | > 10 µM | > 10 µM | > 10 µM | > 10 µM | > 10 µM | > 10 µM | O=C(Nc1ccc(Cl)c(Cl)c1)Nc1ccc([N+](=O)[O-])cn1 | > 10 µM |
| 2.5 µM (≈ 0.673 µg/mL) | 0.625 µM (≈ 0.168 µg/mL) | > 10 µM | > 10 µM | 0.312 µM (≈ 0.0841 µg/mL) | > 10 µM | > 10 µM | O=Nc1c(-c2cccc([N+](=O)[O-])c2)nc2ncccn12 | > 10 µM |
| 10 µM (≈ 3.25 µg/mL) | 5 µM (≈ 1.63 µg/mL) | > 10 µM | > 10 µM | > 10 µM | > 10 µM | > 10 µM | N=C(Nc1nc(-c2ccccn2)cc2ccccc12)c1ccccn1 | > 10 µM |
| > 10 µM | > 10 µM | > 10 µM | > 10 µM | > 10 µM | > 10 µM | > 10 µM | O=C(Nc1ccc(C2=NCCN2)cc1)c1ccc(C(=O)Nc2ccc(C3=NCCN3)cc2)c(Cl)c1 | > 10 µM |
| > 10 µM | > 10 µM | > 10 µM | > 10 µM | > 10 µM | > 10 µM | > 10 µM | CC(C)c1ccc2c(c1)CCC1C(C)(CN)CCCC21C (centres undefined) | 8.3 µM |
| > 10 µM | > 10 µM | > 10 µM | > 10 µM | > 10 µM | > 10 µM | > 10 µM | Cc1cnc(SCc2ccc(Cl)cc2Cl)nc1O | > 10 µM |
| > 10 µM | > 10 µM | 0.156 µM (≈ 0.0509 µg/mL) | > 10 µM | > 10 µM | > 10 µM | > 10 µM | Cn1c(=S)c2nc(SCCN3CCCC3)[nH]c2n(C)c1=O | > 10 µM |
| > 10 µM | > 10 µM | > 10 µM | > 10 µM | > 10 µM | > 10 µM | > 10 µM | CCOC(=O)/C(C#N)=C1\SS/C(=C(/C#N)C(=O)OCC)S1 | > 10 µM |
| > 10 µM | > 10 µM | > 10 µM | > 10 µM | > 10 µM | > 10 µM | > 10 µM | O=C(Nc1cccc(-c2nc3ccccc3[nH]2)c1)c1ccc(C(=O)Nc2cccc(-c3nc4ccccc4[nH]3)c2)cc1 | > 10 µM |
| > 10 µM | > 10 µM | > 10 µM | > 10 µM | > 10 µM | > 10 µM | > 10 µM | CCOC(=O)c1ccc(Nc2sc(C(=O)c3cccc([N+](=O)[O-])c3)c(N)c2C#N)cc1 | > 10 µM |
| 1.25 µM | ≤ 0.0781 µM | > 10 µM | 2.5 µM | ≤ 0.0781 µM | > 10 µM | > 10 µM | CCN(CC)c1ccc(C(=C2C=CC(=[N+](CC)CC)C=C2)c2ccc(N(CC)CC)cc2)cc1 | 1.47 µM |
| > 10 µM | ≤ 0.0781 µM | > 10 µM | > 10 µM | > 10 µM | > 10 µM | > 10 µM | Cn1cnc([N+](=O)[O-])c1S(=O)(=O)Oc1cccc2ccccc12 | 8.21 µM |
| > 10 µM | > 10 µM | > 10 µM | > 10 µM | > 10 µM | > 10 µM | > 10 µM | Cc1ccnc(NC(c2ccccc2)c2ccc3cccnc3c2O)c1 (centres undefined) | > 10 µM |
| > 10 µM | > 10 µM | > 10 µM | > 10 µM | > 10 µM | > 10 µM | > 10 µM | Cc1ccc([S+]([O-])c2ccc([N+](=O)[O-])c3nonc23)cc1 (centres undefined) | > 10 µM |
| 10 µM | > 10 µM | > 10 µM | > 10 µM | > 10 µM | > 10 µM | > 10 µM | Cc1c2cc[n+](CCN3CCCCC3)cc2c(C)c2c1[nH]c1ccc(O)cc12 | > 10 µM |
| 0.625 µM (≈ 0.195 µg/mL) | 0.625 µM (≈ 0.195 µg/mL) | > 10 µM | > 10 µM | > 10 µM | > 10 µM | > 10 µM | O=C1C(Cl)=C(NCCc2ccccc2)C(=O)c2ccccc21 | > 10 µM |
| > 10 µM | 2.5 µM (≈ 0.759 µg/mL) | > 10 µM | > 10 µM | > 10 µM | > 10 µM | > 10 µM | C/C(=N/NC(=S)N1CC2CCC(CC2)C1)c1cnccn1 | > 10 µM |
| > 10 µM | > 10 µM | > 10 µM | > 10 µM | > 10 µM | > 10 µM | > 10 µM | N=C(N)NCCCS(=O)(=O)Nc1ccc(Nc2c3ccccc3nc3cc([N+](=O)[O-])ccc23)cc1 | > 10 µM |
| > 10 µM | > 10 µM | 1.25 µM (≈ 0.38 µg/mL) | 5 µM (≈ 1.52 µg/mL) | 1.25 µM (≈ 0.38 µg/mL) | > 10 µM | 5 µM (≈ 1.52 µg/mL) | Nc1ccc(Cn2ccc3c4c(N)nc(N)nc4ccc32)cc1 | > 10 µM |
| > 10 µM | 10 µM (≈ 2.72 µg/mL) | > 10 µM | > 10 µM | > 10 µM | > 10 µM | > 10 µM | CN(C)c1n/c(=N/c2cccc(Cl)c2)ss1 | > 10 µM |
| > 10 µM | > 10 µM | > 10 µM | > 10 µM | > 10 µM | > 10 µM | > 10 µM | COC(=O)N1C2CCCCC2=NN(c2ccccc2)N1C(=O)OC (centres undefined) | > 10 µM |
| > 10 µM | 10 µM (≈ 3.08 µg/mL) | > 10 µM | > 10 µM | > 10 µM | > 10 µM | > 10 µM | C=C(C)C(=O)Oc1ccc(/N=N/c2ccc(C)cc2)ccc1=O | > 10 µM |
| > 10 µM | > 10 µM | 0.156 µM (≈ 0.0557 µg/mL) | > 10 µM | 5 µM (≈ 1.78 µg/mL) | > 10 µM | > 10 µM | CN(C)CCOc1ccc2c(c1)C(=O)/C(=C\c1ncc([N+](=O)[O-])n1C)C2 | 1.55 µM |
| > 10 µM | > 10 µM | > 10 µM | > 10 µM | > 10 µM | > 10 µM | > 10 µM | O=C1C=CC(=O)N1c1ccc(I)cc1Cl | > 10 µM |

| SMILES | MIC [1] | MIC [2] | MIC [3] | MIC [4] | MIC [5] | MIC [6] | MIC [8] | CC50 [7] |
| --- | --- | --- | --- | --- | --- | --- | --- | --- |
| CC[C@@]1(O)C(=O)OCc2c1cc1n(c2=O)Cc2cc3c(NC(=O)CN)cccc3nc2-1 | > 10 µM | > 10 µM | > 10 µM | > 10 µM | > 10 µM | > 10 µM | > 10 µM | 0.6 µM |
| O=[N+]([O-])c1ccc(-c2ccccc2)c([As](=O)(O)O)c1 | > 10 µM | > 10 µM | > 10 µM | > 10 µM | > 10 µM | > 10 µM | > 10 µM | > 10 µM |
| Cc1ccc(C=C2C(Cl)=C(Cl)C(Cl)=C2Cl)cc1 | > 10 µM | > 10 µM | > 10 µM | > 10 µM | > 10 µM | > 10 µM | > 10 µM | > 10 µM |
| C=Cc1cc(OC)c2c(c1)c(=O)oc1c2cc(OC)c2c(O)ccc(C3OC(C)C(O)C(C)(O)C3O)c21 (centres undefined) | > 10 µM | > 10 µM | > 10 µM | > 10 µM | 0.156 µM (≈ 0.0795 µg/mL) | > 10 µM | > 10 µM | 1.85 µM |
| COC1CC(C)C(OC)c2cc(O)cc(c2O)NC(=O)/C(C)=C/C=C\C(C)C(OC(N)=O)/C(C)=C\C(C)C1OC (centres undefined) | > 10 µM | > 10 µM | > 10 µM | > 10 µM | > 10 µM | > 10 µM | > 10 µM | 1.09 µM |
| NC(=S)c1cn(C2OC(CO)C(O)C2O)c2ncnc(N)c12 (centres undefined) | > 10 µM | 10 µM (≈ 3.25 µg/mL) | > 10 µM | > 10 µM | > 10 µM | > 10 µM | > 10 µM | 0.521 µM |
